target: ACC1 (Homo sapiens (Human), UniProt Q13085); experiment: In vitro ACC inhibition assay (ADP-Glo), ACC1; type: biochemical; conditions: not given
Procedure: (§1) Compounds of the present invention were evaluated in an in vitro ACC inhibition assay as described by Harwood, et al, 2003, the entirety of which is incorporated herein by reference.
(§2) In Vitro Acetyl-CoA Carboxylase (ACC) Inhibition Assay
(§3) An exemplary procedure for the in vitro ACC inhibition assay, which can be used to determine the inhibitory action of compounds of the invention toward either ACC1 or ACC2, follows. The ADP-Glo™ Kinase Assay kit from Promega was used. The ADP-Glo™ Kinase Assay is a luminescent ADP detection assay to measure enzymatic activity by quantifying the amount of ADP produced during an enzyme reaction. The assay is performed in two steps; first, after the enzyme reaction, an equal volume of ADP-Glo™ Reagent is added to terminate the reaction and deplete the remaining ATP. Second, the Kinase Detection Reagent is added to simultaneously convert ADP to ATP and allow the newly synthesized ATP to be measured using a luciferase/luciferin reaction. Luminescence can be correlated to ADP concentrations by using an ATP-to-ADP conversion curve. The detailed procedure is as follows. 50 μL of the compound being tested (600 uM in DMSO) was added to a 384-well dilution plate. The compound was diluted 1:3 in succession in DMSO for each row for 11 wells. 0.5 μL ACC2 working solution was added to 384-well white Optiplate assay plate. 0.5 μL diluted compound solution in each column from step 2 to assay plate, each row containing 2 replicates. […] The plates were incubated at room temperature for 15 minutes. 5 μL substrate working solution was added to each well to initiate reaction. Final ACC2 reaction concentrations consist of: 5 nM ACC2, 20 μM ATP, 20 μM acetyl-CoA, 12 mM NaHCO3, 0.01% Brij35, 2 mM DTT, 5% DMSO, test compound concentrations: 30 μM, 10 μM, 3.33 μM, 1.11 μM, 0.37 μM, 0.123 μM, 0.0411 μM, 0.0137 μM, 0.00457 μM, 0.00152 μM, and 0.00051 μM. Plates were incubated at room temperature for 60 minutes. 10 μL ADP glo reagent was added. Plates were incubated at room temperature for 40 minutes. 20 μL kinase detection reagent was added. Plates were incubated at room temperature for 40 minutes, then read on a Perkin Elmer EnVision 2104 plate reader for luminescence as Relative Light Units (RLU).
(§4) Data for each concentration, as well as the positive and negative controls were averaged, and the standard deviation calculated. Percent inhibition was calculated by the formula: 100×(average negative control-compound)/(average negative control-average positive control). The IC50 for each compound was calculated by fitting the data with a non-linear regress ion equation: Y=Bottom+(Top−Bottom)/(1+10((Log IC50−X* HillSlope)), where X is the log of compound concentration and Y is percent inhibition.

Row | IC50 [µM] | SMILES
1 | 0.01 to 0.05 | COc1ccccc1[C@H](Cn1c(=O)n(C2(C(N)=O)CC2)c(=O)c2c(C)c(Br)sc21)OC1CCOCC1 [Example 58]
2 | 0.01 to 0.05 | COc1ccccc1[C@H](Cn1c(=O)n(C2(CC(=O)O)CC2)c(=O)c2c(C)c(-c3ncco3)sc21)OC1CCOCC1 [Example 61]
3 | 0.001 to 0.01 | CNC(=O)CC1(n2c(=O)c3c(C)c(Br)sc3n(C[C@H](OC3CCOCC3)c3ccccc3OC)c2=O)CC1 [Example 62]
4 | 0.001 to 0.01 | CNC(=O)CC1(n2c(=O)c3c(C)c(-c4ncco4)sc3n(C[C@H](OC3CCOCC3)c3ccccc3OC)c2=O)CC1 [Example 63]
5 | 0.001 to 0.01 | COc1ccccc1[C@H](Cn1c(=O)n(C2(CC(N)=O)CC2)c(=O)c2c(C)c(-c3ncco3)sc21)OC1CCOCC1 [Example 64]
6 | < 0.001 | COc1ccccc1[C@H](Cn1c(=O)n(C2CCC2C(=O)O)c(=O)c2c(C)c(-c3ncco3)sc21)OC1CCOCC1 (stereo partly drawn) [Example 69]

target: ACC2 (Homo sapiens (Human), UniProt O00763); experiment: In vitro ACC inhibition assay (ADP-Glo), ACC2; type: biochemical; conditions: 5 nM ACC2, 20 μM ATP, 20 μM acetyl-CoA; read-out: IC50 (μM) ACC2
Sequence (O00763 whole entry, species assumed): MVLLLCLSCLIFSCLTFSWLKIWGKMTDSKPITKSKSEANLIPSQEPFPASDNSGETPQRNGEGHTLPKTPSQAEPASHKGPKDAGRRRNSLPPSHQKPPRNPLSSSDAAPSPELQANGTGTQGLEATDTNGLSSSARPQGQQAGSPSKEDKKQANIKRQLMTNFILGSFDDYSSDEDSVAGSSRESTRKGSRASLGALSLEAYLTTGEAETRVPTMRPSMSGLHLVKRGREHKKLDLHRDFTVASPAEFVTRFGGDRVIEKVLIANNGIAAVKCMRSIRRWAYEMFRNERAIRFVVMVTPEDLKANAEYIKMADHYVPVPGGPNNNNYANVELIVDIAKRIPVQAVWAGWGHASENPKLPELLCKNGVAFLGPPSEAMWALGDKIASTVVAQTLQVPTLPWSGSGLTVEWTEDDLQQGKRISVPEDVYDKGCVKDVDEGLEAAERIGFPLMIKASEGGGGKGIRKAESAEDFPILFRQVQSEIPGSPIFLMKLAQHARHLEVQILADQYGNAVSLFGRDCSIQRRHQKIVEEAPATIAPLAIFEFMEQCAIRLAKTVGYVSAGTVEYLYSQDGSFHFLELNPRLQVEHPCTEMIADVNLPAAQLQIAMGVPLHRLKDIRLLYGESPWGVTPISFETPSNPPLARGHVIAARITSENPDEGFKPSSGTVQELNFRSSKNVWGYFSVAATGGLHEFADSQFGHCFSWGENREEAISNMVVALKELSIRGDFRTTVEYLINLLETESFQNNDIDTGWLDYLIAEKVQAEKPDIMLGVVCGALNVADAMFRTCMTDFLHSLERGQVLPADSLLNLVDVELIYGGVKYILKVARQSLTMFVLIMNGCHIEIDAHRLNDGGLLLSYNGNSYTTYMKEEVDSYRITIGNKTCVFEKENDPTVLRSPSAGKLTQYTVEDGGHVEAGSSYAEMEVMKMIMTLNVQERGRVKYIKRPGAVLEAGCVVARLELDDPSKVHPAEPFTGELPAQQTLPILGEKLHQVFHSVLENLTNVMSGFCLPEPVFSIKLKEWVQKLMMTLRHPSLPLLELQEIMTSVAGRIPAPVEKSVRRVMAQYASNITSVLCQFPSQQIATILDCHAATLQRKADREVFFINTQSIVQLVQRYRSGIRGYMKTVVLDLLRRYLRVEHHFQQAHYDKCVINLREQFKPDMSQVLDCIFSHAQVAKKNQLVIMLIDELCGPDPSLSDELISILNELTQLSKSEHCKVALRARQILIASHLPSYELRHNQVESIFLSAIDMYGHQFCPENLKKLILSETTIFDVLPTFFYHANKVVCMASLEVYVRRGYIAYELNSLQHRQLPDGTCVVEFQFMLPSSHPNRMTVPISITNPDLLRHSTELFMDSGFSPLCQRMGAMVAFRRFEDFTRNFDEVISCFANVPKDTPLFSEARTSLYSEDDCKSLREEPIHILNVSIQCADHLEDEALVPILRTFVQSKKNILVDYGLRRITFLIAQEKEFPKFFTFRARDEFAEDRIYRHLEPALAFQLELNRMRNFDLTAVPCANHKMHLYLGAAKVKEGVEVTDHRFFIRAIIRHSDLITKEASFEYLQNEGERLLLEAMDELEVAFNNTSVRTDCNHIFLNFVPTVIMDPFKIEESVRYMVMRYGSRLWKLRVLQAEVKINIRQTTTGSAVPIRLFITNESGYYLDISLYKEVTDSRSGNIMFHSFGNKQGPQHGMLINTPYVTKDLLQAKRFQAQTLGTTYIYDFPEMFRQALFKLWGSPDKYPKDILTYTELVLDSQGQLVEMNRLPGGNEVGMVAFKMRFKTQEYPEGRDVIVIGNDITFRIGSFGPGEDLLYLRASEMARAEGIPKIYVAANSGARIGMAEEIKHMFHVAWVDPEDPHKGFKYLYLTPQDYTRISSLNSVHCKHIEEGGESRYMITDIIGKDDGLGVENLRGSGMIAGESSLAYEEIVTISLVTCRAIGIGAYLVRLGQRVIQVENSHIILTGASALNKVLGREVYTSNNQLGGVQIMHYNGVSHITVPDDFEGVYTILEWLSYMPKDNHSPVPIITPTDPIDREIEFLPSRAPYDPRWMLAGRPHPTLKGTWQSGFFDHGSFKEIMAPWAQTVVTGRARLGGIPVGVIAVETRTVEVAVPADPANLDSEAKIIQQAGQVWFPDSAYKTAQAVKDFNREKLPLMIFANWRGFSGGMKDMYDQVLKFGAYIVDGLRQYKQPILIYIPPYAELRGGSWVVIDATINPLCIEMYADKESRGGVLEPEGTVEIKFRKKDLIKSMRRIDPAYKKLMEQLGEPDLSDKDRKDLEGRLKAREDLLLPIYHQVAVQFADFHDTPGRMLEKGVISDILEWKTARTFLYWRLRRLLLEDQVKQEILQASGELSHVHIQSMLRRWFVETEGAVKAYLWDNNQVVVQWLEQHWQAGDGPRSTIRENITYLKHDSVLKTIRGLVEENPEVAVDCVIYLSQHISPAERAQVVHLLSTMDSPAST
Procedure: as §1, §2, §3, §4

Row | IC50 [µM] | SMILES
7 | < 0.01 | COc1ccccc1[C@H](Cn1c(=O)n(C2(C(=O)O)CCCC2)c(=O)c2c(C)c(Br)sc21)OC1CCOCC1 [Example 30]
8 | 0.01 to 0.1 | COc1ccccc1[C@H](Cn1c(=O)n(C2(C(=O)O)CC2)c(=O)c2c(C)c(Cl)sc21)OC1CCOCC1 [Example 40]
9 | < 0.01 | COc1ccccc1[C@H](Cn1c(=O)n(C2(C(=O)NS(C)(=O)=O)CC2)c(=O)c2c(C)c(-c3ncco3)sc21)OC1CCOCC1 [Example 41]
10 | 0.01 to 0.1 | COc1ccccc1[C@H](Cn1c(=O)n(C2(C(N)=O)CC2)c(=O)c2c(C)c(Br)sc21)OC1CCOCC1 [Example 58]
11 | < 0.01 | COc1ccccc1[C@H](Cn1c(=O)n(C2(CC(=O)O)CC2)c(=O)c2c(C)c(-c3ncco3)sc21)OC1CCOCC1 [Example 61]
12 | 0.01 to 0.1 | CNC(=O)CC1(n2c(=O)c3c(C)c(Br)sc3n(C[C@H](OC3CCOCC3)c3ccccc3OC)c2=O)CC1 [Example 62]
13 | 0.01 to 0.1 | CNC(=O)CC1(n2c(=O)c3c(C)c(-c4ncco4)sc3n(C[C@H](OC3CCOCC3)c3ccccc3OC)c2=O)CC1 [Example 63]
14 | < 0.01 | COc1ccccc1[C@H](Cn1c(=O)n(C2(CC(N)=O)CC2)c(=O)c2c(C)c(-c3ncco3)sc21)OC1CCOCC1 [Example 64]
15 | < 0.01 | COc1ccccc1[C@H](Cn1c(=O)n(C2CCC2C(=O)O)c(=O)c2c(C)c(-c3ncco3)sc21)OC1CCOCC1 (stereo partly drawn) [Example 69]

same assay, conditions: ND630 versus RJ compounds; isoform not given; read-out: IC50 (μM) ND630/RJ-cmps(%)

Row | IC50 [µM] | SMILES
16 | 0.003 to 0.005 | COc1ccccc1[C@H](Cn1c(=O)n(C2(C(=O)O)CCCC2)c(=O)c2c(C)c(Br)sc21)OC1CCOCC1 [Example 30]
17 | 0.005 to 0.01 | COc1ccccc1[C@H](Cn1c(=O)n(C2(C(=O)O)CC2)c(=O)c2c(C)c(Cl)sc21)OC1CCOCC1 [Example 40]
18 | 0.005 to 0.01 | COc1ccccc1[C@H](Cn1c(=O)n(C2(C(=O)NS(C)(=O)=O)CC2)c(=O)c2c(C)c(-c3ncco3)sc21)OC1CCOCC1 [Example 41]
19 | > 0.01 | COc1ccccc1[C@H](Cn1c(=O)n(C2(C(N)=O)CC2)c(=O)c2c(C)c(Br)sc21)OC1CCOCC1 [Example 58]
20 | > 0.01 | COc1ccccc1[C@H](Cn1c(=O)n(C2CCC2C(=O)O)c(=O)c2c(C)c(-c3ncco3)sc21)OC1CCOCC1 (stereo partly drawn) [Example 69]

test system: HepG2; experiment: EC50 in HepG2; type: cell-based; conditions: HepG2; read-out: EC50 (μM) HepG2

Row | EC50 [µM] | SMILES
21 | 0.1 to 1 | COc1ccccc1[C@H](Cn1c(=O)n(C2(C(=O)O)CCCC2)c(=O)c2c(C)c(Br)sc21)OC1CCOCC1 [Example 30]
22 | 0.1 to 1 | COc1ccccc1[C@H](Cn1c(=O)n(C2(C(=O)O)CC2)c(=O)c2c(C)c(Cl)sc21)OC1CCOCC1 [Example 40]
23 | > 1 | COc1ccccc1[C@H](Cn1c(=O)n(C2(C(=O)NS(C)(=O)=O)CC2)c(=O)c2c(C)c(-c3ncco3)sc21)OC1CCOCC1 [Example 41]
24 | < 0.01 | COc1ccccc1[C@H](Cn1c(=O)n(C(C)(C)C(N)=O)c(=O)c2c(C)c(-c3ncco3)sc21)OC1CCOCC1 [Example 42]
25 | > 1 | COc1ccccc1[C@H](Cn1c(=O)n(C2(C(N)=O)CC2)c(=O)c2c(C)c(Br)sc21)OC1CCOCC1 [Example 58]
26 | 0.1 to 1 | COc1ccccc1[C@H](Cn1c(=O)n(C2(CC(=O)O)CC2)c(=O)c2c(C)c(-c3ncco3)sc21)OC1CCOCC1 [Example 61]
27 | 0.01 to 0.1 | CNC(=O)CC1(n2c(=O)c3c(C)c(Br)sc3n(C[C@H](OC3CCOCC3)c3ccccc3OC)c2=O)CC1 [Example 62]
28 | 0.01 to 0.1 | CNC(=O)CC1(n2c(=O)c3c(C)c(-c4ncco4)sc3n(C[C@H](OC3CCOCC3)c3ccccc3OC)c2=O)CC1 [Example 63]
29 | < 0.01 | COc1ccccc1[C@H](Cn1c(=O)n(C2(CC(N)=O)CC2)c(=O)c2c(C)c(-c3ncco3)sc21)OC1CCOCC1 [Example 64]
30 | < 0.01 | COc1ccccc1[C@H](Cn1c(=O)n(C2CCC2C(=O)O)c(=O)c2c(C)c(-c3ncco3)sc21)OC1CCOCC1 (stereo partly drawn) [Example 69]

same assay, conditions: ND630 versus RJ compounds; read-out: EC50 (μM) ND630/RJ-cmps(%)

Row | EC50 [µM] | SMILES
31 | > 1 | COc1ccccc1[C@H](Cn1c(=O)n(C2(C(=O)O)CCCC2)c(=O)c2c(C)c(Br)sc21)OC1CCOCC1 [Example 30]
32 | > 1 | COc1ccccc1[C@H](Cn1c(=O)n(C2(C(=O)O)CC2)c(=O)c2c(C)c(Cl)sc21)OC1CCOCC1 [Example 40]
33 | > 1 | COc1ccccc1[C@H](Cn1c(=O)n(C2(C(=O)NS(C)(=O)=O)CC2)c(=O)c2c(C)c(-c3ncco3)sc21)OC1CCOCC1 [Example 41]
34 | > 1 | COc1ccccc1[C@H](Cn1c(=O)n(C(C)(C)C(N)=O)c(=O)c2c(C)c(-c3ncco3)sc21)OC1CCOCC1 [Example 42]
35 | > 1 | COc1ccccc1[C@H](Cn1c(=O)n(C2(CC(=O)O)CC2)c(=O)c2c(C)c(-c3ncco3)sc21)OC1CCOCC1 [Example 61]
36 | > 1 | CNC(=O)CC1(n2c(=O)c3c(C)c(Br)sc3n(C[C@H](OC3CCOCC3)c3ccccc3OC)c2=O)CC1 [Example 62]
37 | > 1 | CNC(=O)CC1(n2c(=O)c3c(C)c(-c4ncco4)sc3n(C[C@H](OC3CCOCC3)c3ccccc3OC)c2=O)CC1 [Example 63]
38 | > 1 | COc1ccccc1[C@H](Cn1c(=O)n(C2(CC(N)=O)CC2)c(=O)c2c(C)c(-c3ncco3)sc21)OC1CCOCC1 [Example 64]
39 | > 1 | COc1ccccc1[C@H](Cn1c(=O)n(C2CCC2C(=O)O)c(=O)c2c(C)c(-c3ncco3)sc21)OC1CCOCC1 (stereo partly drawn) [Example 69]

test system: MDA-MB-468; experiment: EC50 in MDA-MB-468; type: cell-based; conditions: MDA-MB-468, reference; read-out: EC50 MDA-MB-468 (cisplatin)

Row | SMILES | EC50 [µM]
40 | N.N.[Cl][Pt][Cl] [cisplatin, reference compound] | 0.68

same assay, conditions: MDA-MB-468; read-out: EC50 (μM) MDA-MB-468

Row | EC50 [µM] | SMILES
41 | > 10 | COc1ccccc1[C@H](Cn1c(=O)n(C2(C(=O)O)CCCC2)c(=O)c2c(C)c(Br)sc21)OC1CCOCC1 [Example 30]
42 | > 10 | COc1ccccc1[C@H](Cn1c(=O)n(C2(C(=O)O)CC2)c(=O)c2c(C)c(Cl)sc21)OC1CCOCC1 [Example 40]
43 | 1 to 10 | COc1ccccc1[C@H](Cn1c(=O)n(C2(C(=O)NS(C)(=O)=O)CC2)c(=O)c2c(C)c(-c3ncco3)sc21)OC1CCOCC1 [Example 41]
44 | > 10 | COc1ccccc1[C@H](Cn1c(=O)n(C(C)(C)C(N)=O)c(=O)c2c(C)c(-c3ncco3)sc21)OC1CCOCC1 [Example 42]

test system: A549; experiment: EC50 in A549; type: cell-based; conditions: A549, reference; read-out: EC50 A549 (cisplatin)

Row | SMILES | EC50 [µM]
45 | N.N.[Cl][Pt][Cl] [cisplatin, reference compound] | 1.28

same assay, conditions: A549; read-out: EC50 (μM) A549

Row | EC50 [µM] | SMILES
46 | > 1 | COc1ccccc1[C@H](Cn1c(=O)n(C2(C(=O)O)CCCC2)c(=O)c2c(C)c(Br)sc21)OC1CCOCC1 [Example 30]
47 | > 1 | COc1ccccc1[C@H](Cn1c(=O)n(C2(C(=O)O)CC2)c(=O)c2c(C)c(Cl)sc21)OC1CCOCC1 [Example 40]
48 | < 0.5 | COc1ccccc1[C@H](Cn1c(=O)n(C2(C(=O)NS(C)(=O)=O)CC2)c(=O)c2c(C)c(-c3ncco3)sc21)OC1CCOCC1 [Example 41]
49 | < 0.5 | COc1ccccc1[C@H](Cn1c(=O)n(C(C)(C)C(N)=O)c(=O)c2c(C)c(-c3ncco3)sc21)OC1CCOCC1 [Example 42]

test system: ACC1; experiment: not given; conditions: ACC1 isolated from rat, mouse, monkey and human; cited from earlier work

Row | SMILES | IC50 [nM]
50 | O=C(c1c2ccccc2cc2ccccc12)N1CCC(N2CCC[C@@H](C(=O)N3CCOCC3)C2)CC1 [CP-640186] | 60

test system: ACC2; experiment: not given; conditions: ACC2 isolated from rat, mouse, monkey and human; cited from earlier work

Row | SMILES | IC50 [nM]
51 | O=C(c1c2ccccc2cc2ccccc12)N1CCC(N2CCC[C@@H](C(=O)N3CCOCC3)C2)CC1 [CP-640186] | 60

From US10995099B2, “Compounds and their uses as ACC inhibitors” (NANJING RUIJIE PHARMATECH CO., LTD., priority 2017, dated 2021)
